“Also recorded” adds a separate entry of the source.
How the values were obtained:
bovine chymotrypsin = assay: Specificity assay, bovine chymotrypsin; assay type: biochemical; conditions: for Percent Activity of Chymotrypsin: 100 nM inhibitor, ~1 h, 10 nM enzyme; for inhibition of bovine chymotrypsin, in words: text statement
Experimental: (§1) Specificity Assays The following assays were used to test the specificity of ecotin and the M84K and M84R mutants against various proteases. Ecotin, M84K, M84R (100 nM each), or a control blank were incubated at room temperature for ~1 h with each enzyme. The enzymes tested (enzyme concentration, buffer, substrate) were FXa (1.2 nM, Buffer A, 0.7 mM Spectrozyme fXa), thrombin (3.7 nM, Buffer A, 0.7 mM S2366), TF.cndot.FVIIa (12.0 nM, Buffer B, 0.7 mM S2366), FXIa (1.2 nM, Buffer A containing 1 mg/ml BSA, 0.7 mM S2366), activated protein C (4.3 nM, Buffer A, 0.7 mM S2366), plasmin (15 nM, Buffer A, 1 mM S2251), single chain t-PA (15 nM, Buffer A, 2.5 mM S2288), Factor XIIa (10 nM, Buffer A, 0.5 mM S2302, plasma kallikrein (10 nM, Buffer A, 0.5 mM S2302), HLE (17 nM, 0.1 M Tris, pH 7.5, 0.5 M NaCl and 0.005 % Triton X-100, 0.42 mM MeOSuc-AAPV-pNA) (SEQ ID NO:9), bovine trypsin (10 nM, Buffer A, 0.25 mM Spectrozyme fXa), and bovine chymotrypsin (10 nM, Buffer A, 1 mM Suc-AAPF-pNA) (SEQ ID NO:10). Buffer A contains 50 mM Tris, pH 7.5, 100 mM NaCl, 2 mM CaCl2 and 0.005% Triton X-100. Buffer B contains 50 mM Tris, pH 7.5, 100 mM NaCl, 10 mM CaCl2, 0.5% BSA, 60 nM TF1-243,and 1 mM CHAPS. The initial change in absorbance at 405 nm was monitored after addition of substrate. Controls lacking inhibitor and/or enzyme were also assayed to assess the uninhibited rates and the background substrate hydrolysis rates, respectively.

FXIa = assay: Specificity assay, FXIa; assay type: biochemical, human; conditions: for Percent Activity of Factor XIa: 100 nM inhibitor, ~1 h, 1.2 nM enzyme
Experimental: as §1

activated protein C = assay: Specificity assay, activated protein C; assay type: biochemical, human; conditions: for Percent Activity of Activated protein C: 100 nM inhibitor, ~1 h, 4.3 nM enzyme
Experimental: as §1

Factor XIIa = assay: Specificity assay, Factor XIIa; assay type: biochemical, human; conditions: for Percent Activity of Factor XIIa: 100 nM inhibitor, ~1 h, 10 nM enzyme
Experimental: as §1

FXa [1] = assay: Specificity assay, FXa; assay type: biochemical, human; conditions: 100 nM inhibitor, ~1 h, 1.2 nM enzyme
Experimental: as §1

single chain t-PA = assay: Specificity assay, single chain t-PA; assay type: biochemical, human; conditions: for Percent Activity of t-PA: 100 nM inhibitor, ~1 h, 15 nM enzyme
Experimental: as §1

FXa [2] = assay: Ecotin·FXa dissociation rate constant (HLE trap); assay type: biochemical, human; conditions: for koff (values in parenthesis): calculated from (Ki)·(kon); for koff: measured in presence of excess HLE to trap free ecotin
Experimental: Determination of FXa dissociation rate constant The dissociation rate constant of the ecotin.cndot.FXa complex was measured using HLE to trap the free ecotin released from the complex. FXa (10 μM) was incubated for 1 h in TNCT buffer in the presence and absence of ecotin (12.5 μM) and diluted 1000-fold into TNCT buffer with and without HLE (500 nM). Aliquots (180 μl ) were removed at various times and initial rates of free FXa were measured at 405 nm with 20 μl of 5 mM Spectrozyme fXa. The product curve (free FXa versus time) was fit to equation 6; the value for koff was determined by nonlinear regression analysis.
To measure the dissociation rate constant of ecotin from FXa, the complex was diluted 1000-fold into buffer containing a 50-fold excess of HLE to trap the free ecotin and prevent reassociation. In the absence of HLE, reassociation of ecotin with FXa was so rapid that free FXa was barely detectible (FIG. 4B). Progress of dissociation was monitored as the increase in hydrolysis rate of Spectrozyme fXa resulting from the increasing free FXa with time. Because HLE prevented reassociation the rate of dissociation of the E·I complex is given by equation (5): [formula] which upon integration gives equation (6): […]
where [E] is the free [FXa] at any time t, [E.cndot.I]0 is the concentration of the complex at time zero, and koff is the first order dissociation rate constant. The time dependent E·I complex dissociation curve fit to equation (6) by nonlinear regression analysis is shown in FIG. 4B; the dissociation rate constant for ecotin tested is shown above in Table I.

bovine trypsin = assay: Specificity assay, bovine trypsin; assay type: biochemical; conditions: for Percent Activity of Trypsin: 100 nM inhibitor, ~1 h, 10 nM enzyme; for inhibition of bovine trypsin, in words: text statement
Experimental: as §1

thrombin = assay: Specificity assay, thrombin; assay type: biochemical, human; conditions: for Percent Activity of Thrombin: 100 nM inhibitor, ~1 h, 3.7 nM enzyme
Experimental: as §1

plasmin = assay: Specificity assay, plasmin; assay type: biochemical, human; conditions: for Percent Activity of Plasmin: 100 nM inhibitor, ~1 h, 15 nM enzyme
Experimental: as §1

[3] = text statement, listed as ecotin

Substance	Percent Activity of Chymotrypsin (bovine chymotrypsin) [%]	inhibition of bovine chymotrypsin, in words (bovine chymotrypsin)	Percent Activity of Factor XIa (FXIa) [%]	inhibition of FXIa, in words (FXIa; text statement)	Percent Activity of Activated protein C (activated protein C) [%]	inhibition of activated protein C, in words (activated protein C; text statement)	Percent Activity of Factor XIIa (Factor XIIa) [%]	inhibition of FXIIa, in words (Factor XIIa; text statement)	Percent Activity of Factor Xa (FXa [1]) [%]	Percent Activity of t-PA (single chain t-PA) [%]	inhibition of t-PA, in words (single chain t-PA; text statement)	koff (values in parenthesis) (FXa [2]) [s⁻¹]	Percent Activity of Trypsin (bovine trypsin) [%]	inhibition of bovine trypsin, in words (bovine trypsin)	Percent Activity of Thrombin (thrombin) [%]	inhibition of thrombin, in words (thrombin; text statement)	Percent Activity of Plasmin (plasmin) [%]	inhibition of plasmin, in words (plasmin; text statement)	further results
M84R	0	significantly inhibited	5	significant inhibition	50	significant inhibition	1	still potently inhibited	1	100	Neither ecotin, the M84R or M84K mutants inhibited	1e-06	0	significantly inhibited	4	significant inhibition	10	significant inhibition	inhibition of FXIa, in words (FXIa; listed as P1 Arg mutant): significantly inhibited; inhibition of activated protein C, in words (activated protein C; listed as P1 Arg mutant): significantly inhibited; inhibition of FXIIa, in words (Factor XIIa; listed as P1 Arg mutant): significantly inhibited; inhibition of t-PA, in words (single chain t-PA; listed as P1 Arg mutant): did not inhibit; inhibition of thrombin, in words (thrombin; listed as P1 Arg mutant): significantly inhibited; inhibition of plasmin, in words (plasmin; listed as P1 Arg mutant): significantly inhibited
Ecotin: E. coli periplasmic protein having the 142 amino acid residue sequence reported by McGrath et al.; recombinant, P1 Met84	0		79	did not effectively inhibit	99	did not effectively inhibit	0	potently inhibited	0	100	did not effectively inhibit	2.2e-05	0		98	did not effectively inhibit	100	did not effectively inhibit	inhibition of FXIa, in words (FXIa; [3]): little or no inhibition; inhibition of activated protein C, in words (activated protein C; [3]): little or no inhibition; inhibition of t-PA, in words (single chain t-PA; [3]): little or no inhibition; also recorded: No inhibition; half-life of ecotin·FXa complex in vitro (FXa [2]): ca. 3 h; koff (FXa [2]): 6.5e-05 s⁻¹; koff (FXa [2]; listed as Wild type): 6.5e-05 s⁻¹; koff (FXa [2]; listed as ecotin): 6.5e-05 s⁻¹; inhibition of thrombin, in words (thrombin; [3]): little or no inhibition; inhibition of plasmin, in words (plasmin; [3]): little or no inhibition
M84K	1	significantly inhibited	12	significant inhibition	65	significant inhibition	0	still potently inhibited	2	100	Neither ecotin, the M84R or M84K mutants inhibited	4.5e-06	0	significantly inhibited	16	significant inhibition	9	significant inhibition	inhibition of FXIa, in words (FXIa; listed as P1 Lys mutant): significantly inhibited; inhibition of activated protein C, in words (activated protein C; listed as P1 Lys mutant): significantly inhibited; inhibition of FXIIa, in words (Factor XIIa; listed as P1 Lys mutant): significantly inhibited; inhibition of t-PA, in words (single chain t-PA; listed as P1 Lys mutant): did not inhibit; inhibition of thrombin, in words (thrombin; listed as P1 Lys mutant): significantly inhibited; inhibition of plasmin, in words (plasmin; listed as P1 Lys mutant): significantly inhibited
